Data reported in US9115143B2, “Substituted indole derivatives as gamma secretase modulators” (Janssen Pharmaceuticals, Inc., priority 2011, dated 2015).

What was measured:
[1] = tested on: Aβ42; test: Screening for γ-secretase-modulating activity: Aβ42 in supernatant of SKNBE2 cells carrying hAPP 695 wild type (Alphalisa); assay type: cell-based, human; conditions: SKNBE2 human neuroblastoma cells carrying hAPP 695 wild type; overnight incubation; Alphalisa on supernatant
How it was run: (§1)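 SKNBE2 human neuroblastoma cells expressing wild-type hAPP 695 (10^4/well) were incubated overnight at 37 °C, 5% CO2 with compound at several concentrations. Supernatant Aβ42 and Aβtotal measured by AlphaLISA sandwich immunoassays; IC50 from 4-parameter fit of percent of untreated control versus log concentration.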

[2] = tested on: Aβtotal; test: Screening for γ-secretase-modulating activity: Aβtotal in supernatant of SKNBE2 cells carrying hAPP 695 wild type (Alphalisa); assay type: cell-based, human; conditions: overnight incubation, Alphalisa on supernatant
How it was run: as §1

[3] = tested on: Aβ42; test: In vivo efficacy B-1b: brain soluble Aβ42, MSD electrochemiluminescence multiplex; conditions: mouse brain soluble fraction, dose 30 mg/kg oral dosing, 4 h after dose; untreated control set at 100; read-out: Aβ42 (% vs Ctrl)_Mean
From the text: (§2) To determine whether acute administration of an Aβ42 lowering agent would reduce Aβ42 levels in vivo, non-transgenic rodents, e.g. mice or rats were used. Animals treated with the Aβ42 lowering agent were examined and compared to those untreated or treated with vehicle and brain levels of soluble Aβ42, Aβ40, Aβ38, and Aβ37 were quantitated by Meso Scale Discovery's (MSD) electrochemiluminescence detection technology. Treatment periods varied from hours (h) to days and were adjusted based on the results of the Aβ42 lowering once a time course of onset of effect could be established.
(§3) A typical protocol for measuring Aβ42 lowering in vivo is shown but it is only one of many variations that could be used to optimize the levels of detectable Aβ. For example, Aβ42 lowering compounds were formulated in 20% of Captisol® (a sulfobutyl ether of β-cyclodextrin) in water or 20% hydroxypropyl β cyclodextrin. The Aβ42 lowering agents were administered as a single oral dose or by any acceptable route of administration to overnight fasted animals. After 4 h, the animals were sacrificed and Aβ42 levels were analysed.
(§4) Blood was collected by decapitation and exsanguinations in EDTA-treated collection tubes. Blood was centrifuged at 1900 g for 10 minutes (min) at 4° C. and the plasma recovered and flash frozen for later analysis. The brain was removed from the cranium and hindbrain. The cerebellum was removed and the left and right hemisphere were separated. The left hemisphere was stored at −18° C. for quantitative analysis of test compound levels. The right hemisphere was rinsed with phosphate-buffered saline (PBS) buffer and immediately frozen on dry ice and stored at −80° C. until homogenization for biochemical assays.
(§5) Mouse brains from non-transgenic animals were resuspended in 8 volumes of 0.4% DEA (diethylamine)/50 mM NaCl containing protease inhibitors (Roche-11873580001 or 04693159001) per gram of tissue, e.g. for 0.158 g brain, add 1.264 ml of 0.4% DEA. All samples were homogenized in the FastPrep-24 system (MP Biomedicals) using lysing matrix D (MPBio #6913-100) at 6 m/s for 20 seconds. Homogenates were centrifuged at 20800×g for 5 min and supernatants collected. Supernatants were centrifuged at 221.300×g for 50 min. The resulting high speed supernatants were then transferred to fresh eppendorf tubes. Nine parts of supernatant were neutralized with 1 part 0.5 M Tris-HCl pH 6.8 and used to quantify Aβ.
(§6) To quantify the amount of Aβ42, Aβ40, Aβ38, and Aβ37 in the soluble fraction of the brain homogenates, simultaneous specific detection of Aβ42, Aβ40, Aβ38, and Aβ37 was performed using MSD's electro-chemiluminescence multiplex detection technology. In this assay purified monoclonal antibodies specific for Abeta37 (JRD/Aβ37/3), Abeta38 (J&JPRD/Aβ38/5), Abeta40 (JRF/cAβ40/28), and Abeta42 (JRF/cAβ42/26) were coated on MSD 4-plex plates. Briefly, the standards (a dilution of synthetic Aβ42, Aβ40, Aβ38, and Aβ37) were prepared in 1.5 ml Eppendorf tube in Ultraculture, with final concentrations ranging from 10000 to 0.3 pg/m. The samples and standards were co-incubated with Sulfo-tag labelled JRF/rAβ/2 antibody to the N-terminus of Aβ as detector antibody. 50 μl of conjugate/sample or conjugate/standards mixtures were then added to the antibody-coated plate. The plate was allowed to incubate overnight at 4° C. in order to allow formation of the antibody-amyloid complex. Following this incubation and subsequent wash steps the assay was finished by adding read buffer according to the manufacturer's instructions (Meso Scale Discovery, Gaitherburg, Md.).
(§7) The SULFO-TAG emits light upon electrochemical stimulation initiated at the electrode. MSD Sector instrument SI6000 was used for signal read-out.
In this model a Aβ42 lowering compared to untreated animals would be advantageous, in particular a Aβ42 lowering with at least 10%, more in particular a Aβ42 lowering with at least 20%. […]

[4] = tested on: Aβ38; test: In vivo efficacy B-2b: brain soluble Aβ38, MSD electrochemiluminescence multiplex; conditions: mouse brain soluble fraction, dose 30 mg/kg oral dosing, 4 h after dose; untreated control set at 100; read-out: Aβ38 (% vs Ctrl)_Mean
From the text: as §2, with “Aβ38 increasing agents” for “Aβ42 lowering agent”, “increase Aβ38” for “reduce Aβ42”, “MSD” for “Meso Scale Discovery's (MSD)”, “Aβ38 increase” for “Aβ42 lowering”
as §3, with “measuring Aβ38 increase” for “measuring Aβ42 lowering”, “example, Aβ38 increasing agents” for “example, Aβ42 lowering compounds”, “The Aβ38 increasing” for “The Aβ42 lowering”, “and Aβ38” for “and Aβ42”
as §4, §5, §6, §7
In this model a Aβ38 increase compared to untreated animals would be advantageous, in particular a Aβ38 increase with at least 10%, more in particular a Aβ38 increase with at least 20%. […]

[5] = tested on: Aβ40; test: In vivo efficacy B-1b/B-2b: brain soluble Aβ40, MSD electrochemiluminescence multiplex; conditions: mouse brain soluble fraction, dose 30 mg/kg oral dosing, 4 h after dose; untreated control set at 100; read-out: Aβ40 (% vs Ctrl)_Mean
From the text: as §2, §3, §4, §5, §6, §7
The results are shown in Table 5 (dose 30 mg/kg oral dosing) (value for untreated animals as control (Ctrl) was set at 100): […]

[6] = Homo sapiens, SKNBE2, SKNBE2 human neuroblastoma cells carrying hAPP 695 wild type
[7] = SKNBE2 human neuroblastoma cells carrying hAPP 695 wild type

IC50 [1] [nM] | IC50 [2, 6] [nM] | IC50 [2, 7] [nM] | melting point [°C] | SMILES | response vs control in vivo at 30 mg/kg [3] [%] | response vs control in vivo at 30 mg/kg [4] [%] | response vs control in vivo at 30 mg/kg [5] [%]
85 |  | > 10000 | 267.3 | COc1c(C#N)ccc2[nH]c(-c3nc4n(n3)CCOC4c3ccc(F)c(Cl)c3)cc12 (stereo not shown) [Compound 156, 2-[8-(3-chloro-4-fluorophenyl)-5,6-dihydro-8H-[1,2,4]triazolo[5,1-c][1,4]oxazin-2-yl]-4-methoxy-1H-indole-5-carbonitrile] |  |  | 
7590 |  | > 10000 | 265.5 | COc1c(C#N)ccc2[nH]c(-c3nc4n(n3)CCOC4c3ccc(F)c(Cl)c3)cc12 (stereo not shown) [Compound 157, 2-[8-(3-chloro-4-fluorophenyl)-5,6-dihydro-8H-[1,2,4]triazolo[5,1-c][1,4]oxazin-2-yl]-4-methoxy-1H-indole-5-carbonitrile] |  |  | 
676 |  | > 10000 | 277.1 | COc1c(C#N)ccc2[nH]c(-c3cn4c(n3)C(c3cc(F)ccc3C)OCC4)cc12 (stereo not shown) [Compound 159, 2-[8-(5-fluoro-2-methylphenyl)-5,6-dihydro-8H-imidazo[2,1-c][1,4]oxazin-2-yl]-4-methoxy-1H-indole-5-carbonitrile] |  |  | 
759 |  | > 10000 | 270.8 | COc1c(C#N)ccc2[nH]c(-c3cn4c(n3)C(c3ccccc3C3CC3)OCC4)cc12 (stereo not shown) [Compound 169, 2-[8-(2-cyclopropylphenyl)-5,6-dihydro-8H-imidazo[2,1-c][1,4]oxazin-2-yl]-4-methoxy-1H-indole-5-carbonitrile] |  |  | 
11 | > 10000 |  | 269.8 | COc1c(C#N)ccc2[nH]c(-c3cn4c(n3)C(c3ccccc3C3CC3)OCC4)cc12 (stereo not shown) [Compound 170, 2-[8-(2-cyclopropylphenyl)-5,6-dihydro-8H-imidazo[2,1-c][1,4]oxazin-2-yl]-4-methoxy-1H-indole-5-carbonitrile] |  |  | 

Second part, the molecule before the results:

SMILES | IC50 [1] [nM] | IC50 [2, 6] [nM] | IC50 [2, 7] [nM] | melting point [°C] | response vs control in vivo at 30 mg/kg [3] [%] | response vs control in vivo at 30 mg/kg [4] [%] | response vs control in vivo at 30 mg/kg [5] [%]
COc1c(C#N)ccc2[nH]c(-c3cn4c(n3)C(c3ccccc3C(F)(F)F)OCC4)cc12 (single isomer, unassigned) [Compound 44, 2-[5,6-dihydro-8-[2-(trifluoromethyl)phenyl]-8H-imidazo[2,1-c][1,4]oxazin-2-yl]-4-methoxy-1H-indole-5-carbonitrile] | 21 | > 10000 |  |  | 27 | 110 | 31
COc1c(C#N)ccc2[nH]c(-c3nc4n(n3)CCOC4c3ccccc3C(F)(F)F)cc12 (single isomer, unassigned) [Compound 56, 2-[5,6-dihydro-8-[2-(trifluoromethyl)phenyl]-8H-[1,2,4]triazolo[5,1-c][1,4]oxazin-2-yl]-4-methoxy-1H-indole-5-carbonitrile] | 45 | > 10000 |  |  | 54 | 139 | 91
COc1c(C#N)ccc2[nH]c(-c3cn4c(n3)C(c3c(F)cccc3Cl)OCC4)cc12 (single isomer, unassigned) [Compound 122, 2-[8-(2-chloro-6-fluorophenyl)-5,6-dihydro-8H-imidazo[2,1-c][1,4]oxazin-2-yl]-4-methoxy-1H-indole-5-carbonitrile] | 39 | > 10000 |  |  | 74 | 145 | 90
COc1c(C#N)ccc2[nH]c(-c3cn4c(n3)C(c3cccc(F)c3C(F)(F)F)OCC4)cc12 (single isomer, unassigned) [Compound 131, 2-[8-[3-fluoro-2-(trifluoromethyl)phenyl]-5,6-dihydro-8H-imidazo[2,1-c][1,4]oxazin-2-yl]-4-methoxy-1H-indole-5-carbonitrile] | 27 | 6460 |  |  | 62 | 144 | 72
COc1c(C#N)ccc2[nH]c(-c3nc4n(n3)CCOC4c3cccc(F)c3C(F)(F)F)cc12 (single isomer, unassigned) [Compound 133, 2-[8-[3-fluoro-2-(trifluoromethyl)phenyl]-5,6-dihydro-8H-[1,2,4]triazolo[5,1-c][1,4]oxazin-2-yl]-4-methoxy-1H-indole-5-carbonitrile] | 59 | > 10000 |  |  | 98 | 119 | 107
COc1c(C#N)ccc2[nH]c(-c3nc4n(n3)CCOC4c3cccc(C)c3F)cc12 (single isomer, unassigned) [Compound 148, 2-[8-(2-fluoro-3-methylphenyl)-5,6-dihydro-8H-[1,2,4]triazolo[5,1-c][1,4]oxazin-2-yl]-4-methoxy-1H-indole-5-carbonitrile] | 74 | > 10000 |  |  | 110 | 132 | 118
COc1c(C#N)ccc2[nH]c(-c3cn4c(n3)C(c3cccc(F)c3C)OCC4)cc12 (stereo not shown) [Compound 41, 2-[8-(3-fluoro-2-methylphenyl)-5,6-dihydro-8H-imidazo[2,1-c][1,4]oxazin-2-yl]-4-methoxy-1H-indole-5-carbonitrile] | 20 |  | > 10000 |  | 34 | 140 | 35
COc1c(C#N)ccc2[nH]c(-c3nc4n(n3)CCCOC4c3ccc(F)cc3C)cc12 (stereo not shown) [Compound 53, 2-[9-(4-fluoro-2-methylphenyl)-6,7-dihydro-5H,9H-[1,2,4]triazolo[5,1-c][1,4]oxazepin-2-yl]-4-methoxy-1H-indole-5-carbonitrile] | 35 |  | > 10000 |  | 74 | 78 | 79
